Data from patent US12649734B2, “Bioavailable protein disulfide isomerase inhibitors” (THE CLEVELAND CLINIC FOUNDATION, priority 2020, dated 2026).

Columns and labels:
[1] = system: RPMI-8226 cells vs CD34+ HSPCs derived from healthy bone marrow; test: In vitro colony-forming assay, myeloma cells versus normal bone marrow CD34+ cells; type: cell-based, human; details: colonies scored on day 14
Procedure: In vitro colony-forming assays: Mononuclear cells derived from bone marrow or purified CD34+ cells from a healthy donor, cord blood, or MM cell RPMI-8226 were grown in semi-solid methylcellulose media (MethoCult™, H4435; STEMCELL Technologies) in the presence of indicated compounds and concentrations. A total of 10,000/mL normal bone marrow CD34+ cells and 1000/mL RPMI-8226 cells were plat-ed, and colonies were scored on day 14.

PDI = PDI (Homo sapiens, UniProt P07237); details: reported previously; cited from earlier work
MM1.S cells [2] = test: RNA-seq gene expression profiling; type: cell-based, human; details: 3 μM, 6 h
Procedure: FIGS. 7A-7H provide graphs showing CCF642-34 is selective for PDIA1 inhibition-induced ER stress response pathway. MM1.S cells were treated with 3 μM of either CCF642 or CCF642-34 for 6 h, and gene expression analysis was performed by RNA sequencing. (A,B) Volcano plots showing CCF642-34 and CCF642 compared to DMSO control. The criteria for differential expression were at least a 2-fold change with p value less than 0.05. The analysis was performed in Originlab, Version 2019b (OriginLab Corporation, Northampton, MA, USA). […] The diagram was generated using a web-based bioinformatics server. (D,E) Hierarchical clusterings with heat map of MM1.S cells treated with vehicle CCF642-34 or CCF642 are shown for response to endoplasmic reticulum stress and unfolded protein response gene sets. (F-H) Heat maps of PERK and ATF6 target genes, Nrf2, and ER-associated degradation (ERAD) pathways are compared between control and inhibitor-treated MM1.S cells. Data analysis was performed using a web-based server and the Broad Institute Morpheus software.
RNA-seq and analysis: MM1.S cells were treated with 3 μM of either CCF642 or CCF642-34 for 6 h, and RNA was purified by using the NucleoSpin RNA kit (Takara Bio USA, Inc.; cat. #740955) according to the manufacturer's instruction. The RNA sequencings were completed as reported previously. Guan et al., Commun. Biol., 3, 1-13 (2020) The RNA-seq data were sub-mitted to the Gene Expression Omnibus (GEO) repository at the National Center for Biotechnology Information (NCBI) archives, with assigned GEO accession number GSE167097.

PDIA1 = PDIA1 (Homo sapiens, UniProt P07237); details: cited from earlier work
[3] = Solubility in aqueous buffer (turbidity assay); type: physicochemical
Description: To improve its solubility, potency, and selectivity, the inventors used the CCF642 binding space in the catalytic site for in silico modeling and mapped the binding site to the helix-turn-helix motif composed of the WCGHCK binding site in the aa′ and bb′ domains of the PDIA1 active site (FIG. 4A,B). […] The inventors chose to accomplish this by attaching a 3-carbon flexible linker with a terminal primary amino group to the corresponding phenol followed by coupling to desired L-amino acids (FIGS. 1, 2, 4A). The N-BOC penultimate intermediates were purified using flash silica gel chromatography and then deprotected using 4N HCl in dioxane to generate the corresponding hydrochloride (HCL) salts. The compounds for testing were fully characterized by ^1H, ^13C NMR and high-resolution mass spectroscopy.

MM1.S cells [4] = test: ER stress response and apoptosis markers by immunoblotting; type: cell-based, human; details: 3 μM, 4 h
Procedure: FIGS. 6A-6C provide graphs and images showing PDIA1 inhibition by CCF642 analogues induce acute endoplasmic reticulum (ER) stress response and lead to apoptosis. Multiple myeloma cells (MM1.S) were treated with 3 μM of CCF642, -34, -37, -39, -34-A, and Tunicamycin (as a control). The status of ER sensors (XBP-1S, IRE1α oligomerization, and induction of C/EBP homology protein (CHOP)) along with apoptosis markers (cleaved caspase 3 and PARP1) were monitored. (A) MM1.S cells were treated for 4 h with CCF642 and its indicated analogues. (B) MM1.S cells were treated with CCF642-34 in a time course. (C) MM1.S, MM1.S.luc, and BTZ-resistant MM1.S.luc cells were stained with the H2DCFDA ROS detection and then treated with 2.5 μM CCF642-34 up to 4 h.
Immunoblotting: Immunoblotting was performed as described previously (Dallas et al., Blood, 93, 1697-1706 (1999)) using primary antibodies against PDIA1 (Cat #3501), XBP1-S (Cat #12782); IRE1α (Cat #3294), C/EBP homologous protein (CHOP) (Cat #5554), Caspase-3 (Cat #9665), PARP1 (Cat #9542), and GAPDH (Cat #3683) purchased from Cell Signaling Technology, Inc. (Danvers, MA, USA) and used at 1:1000 dilution, unless mentioned otherwise.

[5] = system: BTZ-resistant MM1.S cells; test: Cell viability assay, BTZ-resistant MM1.S; type: cell-based, human; details: Homo sapiens, MM1.S; MM1S.luc BTZ; read-out: IC50 concentration
Procedure: Cells and reagents: MM1.S-luc-BTZ (BTZ®)-resistant cell line was made in our laboratory. Starting with 1 nM concentration, MM1.S-luc cells were treated with BTZ and exposed continuously for 5 days and removed for 2 days before re-exposure to the drug until the growth of the cells mimicked the parental cell line. Incremental increase of the drug was applied until the concentration of 8 nM was reached. […] BTZ was procured from Millennium Pharmaceuticals Inc. All cell lines that are used in this study and their detailed information are shown in table 1 below.
(§1) Cell viability assay: Cell viability was measured in 96 well culture plates (2×10^4 cells/well) using CellTiter-Glo® Luminescent Cell Viability Assay (Promega, Madison, WI, USA) according to the manufacturer's protocol.

MM1.S cells [6] = test: Cell viability assay (CellTiter-Glo), MM1.S; type: cell-based, human; details: Homo sapiens; MM1.S.luc; read-out: IC50 concentration
Procedure: Cell vi-ability and LD50 for inhibitors were measured in 96 well culture plates (2×10^4 cells/well) after 72 h of treatment using CellTiter-Glo® Luminescent Cell Viability Assay (Promega, Madison, WI, USA). (A) Cell survival assay with MM1.S.luc and BTZ-resistant MM1.S.luc cells. […] (C) Comparison of PDIA1 protein levels in MM1.S.luc and MM1.S.luc BTZ-resistant cells. Band intensity was calculated with Image Lab Version 5.2.1. (D) Cell survival assay with 5TGM1.luc and (E) BTZ-resistant 5TGM1.luc cells. (F) MM1.S cell line was exposed to CCF642-34, and BTZ for 72 h for synergistic drug combination test according to Chou and Talalay method. If the […] remained less than 1, the two drugs were determined as synergistic. […] The number of colony-forming units were plotted for each treatment.
as §1

Chain of PDIA1 (P07237 18-508): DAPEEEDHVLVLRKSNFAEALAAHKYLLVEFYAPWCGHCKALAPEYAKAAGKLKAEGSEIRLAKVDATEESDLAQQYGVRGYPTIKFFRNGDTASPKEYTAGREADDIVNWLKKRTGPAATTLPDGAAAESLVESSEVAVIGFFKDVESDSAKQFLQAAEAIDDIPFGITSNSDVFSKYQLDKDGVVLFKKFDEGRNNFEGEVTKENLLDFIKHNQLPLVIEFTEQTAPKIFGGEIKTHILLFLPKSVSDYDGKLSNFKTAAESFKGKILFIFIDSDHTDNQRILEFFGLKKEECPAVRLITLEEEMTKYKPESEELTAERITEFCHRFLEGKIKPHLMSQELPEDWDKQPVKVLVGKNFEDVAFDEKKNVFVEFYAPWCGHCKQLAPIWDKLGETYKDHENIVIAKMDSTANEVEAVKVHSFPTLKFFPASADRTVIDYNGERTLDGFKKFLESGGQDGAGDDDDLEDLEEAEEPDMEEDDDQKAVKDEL
Chain of PDI (P07237 18-508): as above

COc1ccc(N2C(=O)/C(=C\c3ccc([N+](=O)[O-])s3)SC2=S)cc1 [CCF642, reference compound]
potency in restricting colony formation of RPMI-8226 compared to CD34+ HSPCs [1]: ~20 fold | IC50 (PDI): sub-micromolar | number of downregulated genes (MM1.S cells [2]): 257 genes | number of upregulated genes (MM1.S cells [2]): 311 genes | number of genes with changed expression compared to vehicle control (MM1.S cells [2]; 2-fold change, p less than 0.05): 568 genes | binding selectivity of CCF642, as reported previously (PDIA1): off-target bindings in addition to its binding to PDIA1 | solubility [3]: insolubility

O=C(CCC1CNc2ccccc21)NCCCOc1ccc(N2C(=O)/C(=C/c3ccc([N+](=O)[O-])s3)SC2=S)cc1 (stereo not shown) [CCF642-34A]
ER stress response (induction of XBP-1S and CHOP) (MM1.S cells [4]): failed to induce acute ER stress response

CC(C)C[C@H](NC(=O)[C@H](Cc1ccccc1)NC(=O)c1cnccn1)B(O)O [Bortezomib, reference compound]
IC50 [5]: 8 nM | IC50 (MM1.S cells [6]): 2 nM
